The values that follow come from ChEMBL document CHEMBL5154738, “Design, synthesis and structural-activity relationship studies of phanginin A derivatives for regulating SIK1-cAMP/CREB signaling to suppress hepatic gluconeogenesis” (Eur J Med Chem, 2022).

Activity calls are given as the source filed them. No cut-off for these calls is given here.

Series [1] concerns Mus musculus. Description: In vivo activation of SIK1 in ob/ob mouse assessed as increase in SIK1 phosphorylation at Thr182 residue in liver at 100 mg/kg, po administered once daily for 21 days by western blot analysis. To be noted: time 21.0 day. The format is functional, organism-based. On the technique in general: A western blot detects proteins with antibodies after separation by electrophoresis.

Series [2] has as its system Hepatocyte. Description: Inhibition of gluconeogenesis in C57BL/6J mouse primary hepatocytes assessed as inhibition of glucagon-stimulated glucose production preincubated for 1.5 hrs followed by lactate and pyruvate addition and later stimulated with glucagon for 4 hrs. The format is functional, cell-based. The conditions noted are these: dose 2.5-10 µM, time 5.5 hrs, DDE = dose-dependent effect.

Series [3] can be described thus: Inhibition of gluconeogenesis in C57BL/6J mouse primary hepatocytes assessed as inhibition of glucagon-stimulated glucose production at 5 uM preincubated for 1.5 hrs followed by lactate and pyruvate addition and later stimulated with glucagon for 4 hrs. Type of series: functional. The conditions noted are these: Hepatocyte, time 5.5 hrs.
Series [4] deals with Mus musculus. Description: Anti-hyperglycemic activity in ob/ob mouse assessed as reduction in non-fasting blood glucose level at 100 mg/kg, po administered once daily and measured after 21 days relative to control. Type of series: functional. To be noted: 504 h, time 21 day.
Series [5] is described as follows: Cytotoxicity against C57BL/6J mouse primary hepatocytes assessed as cell viability at 50 uM incubated for 24 hrs by MTT assay relative to control. Type of series: toxicity, cell-based, Hepatocyte. The conditions noted are these: read-out: Activity. Background: Tetrazolium assays rely on reduction of a dye to a coloured formazan, in cell work by metabolically active cells.

For series [6], the target named is Serine/threonine-protein kinase SIK1 (Mus musculus) (UniProt Q60670). Nature of the series: Activation of SIK1 in C57BL/6J mouse primary hepatocytes assessed as decrease in CREB phosphorylation at 2.5 to 10 uM incubated for 2 hrs by western blot analysis. The format is cell-based. To be noted: Primary hepatocyte, filed as activator, dose 2.5-10 µM, DDE = dose-dependent effect.
Serine/threonine-protein kinase SIK1 (Mus musculus), sequence (Q60670 whole entry): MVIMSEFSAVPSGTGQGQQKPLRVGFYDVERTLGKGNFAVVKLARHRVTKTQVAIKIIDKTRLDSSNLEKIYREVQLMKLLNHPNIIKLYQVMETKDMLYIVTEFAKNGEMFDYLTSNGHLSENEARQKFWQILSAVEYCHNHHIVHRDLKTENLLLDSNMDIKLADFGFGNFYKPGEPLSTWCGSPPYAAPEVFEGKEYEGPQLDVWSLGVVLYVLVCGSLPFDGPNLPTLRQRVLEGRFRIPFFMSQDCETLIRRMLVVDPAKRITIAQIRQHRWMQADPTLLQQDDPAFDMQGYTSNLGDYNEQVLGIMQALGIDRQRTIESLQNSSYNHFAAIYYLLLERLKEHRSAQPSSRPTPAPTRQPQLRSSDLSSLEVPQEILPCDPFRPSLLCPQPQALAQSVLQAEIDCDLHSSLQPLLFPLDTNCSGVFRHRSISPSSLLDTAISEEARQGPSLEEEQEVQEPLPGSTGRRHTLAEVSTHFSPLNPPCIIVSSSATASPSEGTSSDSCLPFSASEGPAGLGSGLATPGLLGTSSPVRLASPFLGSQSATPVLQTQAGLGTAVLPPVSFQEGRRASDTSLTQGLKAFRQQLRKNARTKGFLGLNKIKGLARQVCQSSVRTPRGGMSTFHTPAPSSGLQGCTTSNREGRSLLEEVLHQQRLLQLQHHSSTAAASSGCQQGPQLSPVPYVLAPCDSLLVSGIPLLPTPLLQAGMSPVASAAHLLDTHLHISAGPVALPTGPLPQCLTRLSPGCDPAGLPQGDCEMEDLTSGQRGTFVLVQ

A short description of series [7]: Cytotoxicity against C57BL/6J mouse primary hepatocytes assessed as cell viability at 10 uM incubated for 24 hrs by MTT assay relative to control. The format is toxicity, cell-based, Hepatocyte. To be noted: read-out: Activity.
Series [8] can be described thus: Inhibition of gluconeogenesis in C57BL/6J mouse primary hepatocytes assessed as inhibition of glucagon-stimulated glucose production at 2.5 uM preincubated for 1.5 hrs followed by lactate and pyruvate addition and later stimulated with glucagon for 4 hrs. Type of series: functional. The conditions noted are these: Hepatocyte, time 5.5 hrs.
The nature of series [9]: Cytotoxicity against C57BL/6J mouse primary hepatocytes assessed as cell viability at 20 uM incubated for 24 hrs by MTT assay relative to control. Type of series: toxicity, cell-based, Hepatocyte. To be noted: read-out: Activity.
A short description of series [10]: Cytotoxicity against C57BL/6J mouse primary hepatocytes assessed as cell viability at 100 uM incubated for 24 hrs by MTT assay relative to control. The format is toxicity, cell-based, Hepatocyte. The conditions noted are these: read-out: Activity.
Series [11] can be described thus: Cytotoxicity against C57BL/6J mouse primary hepatocytes assessed as cell viability at 200 uM incubated for 24 hrs by MTT assay relative to control. The format is toxicity, cell-based, Hepatocyte. To be noted: read-out: Activity.
Series [12] relates to Mus musculus. Nature of the series: Acute hypoglycemic activity in type 2 diabetic ob/ob mouse assessed as reduction in fasting blood glucose level at 100 mg/kg, po administered as single dose and measured for 10 hrs. Type of series: functional, organism-based.
The target of series [13] is Serine/threonine-protein kinase SIK1 (Mus musculus) (UniProt Q60670). Nature of the series: Activation of SIK1 in C57BL/6J mouse primary hepatocytes assessed as decrease in glucagon-stimulated intracellular cAMP accumulation by ELISA. The format is cell-based. The conditions noted are these: Primary hepatocyte, filed as activator, dose 2.5-10 µM, DDE = dose-dependent effect.

Series [14] relates to Mus musculus. Description: Anti-hyperglycemic activity in ob/ob mouse assessed as reduction in fasting blood glucose level at 100 mg/kg, po administered once daily and measured after 4 days relative to control. The format is functional. The conditions noted are these: 96 h, time 4 day.
The test system of series [15] is Mus musculus. Nature of the series: Anti-hyperglycemic activity in ob/ob mouse assessed as reduction in non-fasting blood glucose level at 100 mg/kg, po administered once daily and measured after 8 days relative to control. The conditions noted are these: 192 h, time 8 day. Type of series: functional.
Series [16] relates to Mus musculus. Description: In vivo activation of SIK1 in ob/ob mouse assessed as decrease in CREB phosphorylation in liver at 100 mg/kg, po administered once daily for 21 days by western blot analysis. To be noted: time 21.0 day. The format is functional, organism-based.
Series [17] addresses Serine/threonine-protein kinase SIK1 (Mus musculus) (UniProt Q60670). Description: Activation of SIK1 in C57BL/6J mouse primary hepatocytes assessed as decrease in glucagon-stimulated CREB phosphorylation at 2.5 to 10 uM incubated for 2 hrs by western blot analysis. Type of series: cell-based. To be noted: Primary hepatocyte, filed as activator, dose 2.5-10 µM, DDE = dose-dependent effect.

For series [18], the system named is Hepatocyte. Description: Inhibition of gluconeogenesis in C57BL/6J mouse primary hepatocytes assessed as inhibition of glucose production preincubated for 1.5 hrs followed by lactate and pyruvate addition. The format is functional, cell-based. To be noted: dose 2.5-10 µM, DDE = dose-dependent effect.
Series [19] can be described thus: Inhibition of gluconeogenesis in C57BL/6J mouse primary hepatocytes assessed as inhibition of glucagon-stimulated glucose production at 10 uM preincubated for 1.5 hrs followed by lactate and pyruvate addition and later stimulated with glucagon for 4 hrs. Type of series: functional. To be noted: Hepatocyte, time 5.5 hrs.
Series [20] deals with Serine/threonine-protein kinase SIK1 (Mus musculus) (UniProt Q60670). Nature of the series: Activation of SIK1 in C57BL/6J mouse primary hepatocytes assessed as increase in SIK1 phosphorylation at Thr182 residue measured after 2 hrs by western blot analysis. The format is cell-based. To be noted: Primary hepatocyte, filed as activator, dose 2.5-10 µM, DDE = dose-dependent effect.

Series [21] deals with Mus musculus. Nature of the series: Anti-hyperglycemic activity in ob/ob mouse assessed as reduction in fasting blood glucose level at 100 mg/kg, po administered once daily and measured after 21 days relative to control. The format is functional. To be noted: 504 h, time 21 day.
Series [22] relates to Mus musculus. Nature of the series: Anti-hyperlipidemic activity in ob/ob mouse assessed as reduction in serum triglyceride level at 100 mg/kg, po administered once daily for 21 days. Type of series: functional, organism-based. To be noted: time 21.0 day.
For series [23], the system named is Mus musculus. Description: Anti-hyperlipidemic activity in ob/ob mouse assessed as reduction in total cholesterol level in serum at 100 mg/kg, po administered once daily for 21 days. Type of series: functional, organism-based. The conditions noted are these: time 21.0 day.
Series [24] is described as follows: Inhibition of gluconeogenesis in C57BL/6J mouse primary hepatocytes assessed as inhibition of glucagon-stimulated glucose production at 0.5 mM preincubated for 1.5 hrs followed by lactate and pyruvate addition and later stimulated with glucagon for 4 hrs. To be noted: Hepatocyte, 5.5 h. Type of series: functional.

As usually defined, the inhibition is the change of the read-out against control, counted positive when it falls. As usually defined, the inhibition in vivo is the change of the read-out against control, counted positive when it falls.

On to `COC(=O)[C@@]12CCCC3([C@H](OCCO)OC1)[C@H]2CC[C@H]1[C@@H](C)c2ccoc2C[C@@H]13`, for which the outcome in series [1], in series [12], in [16], in series [22] and in series [23] was Active. Further, the inhibition entry in series [2] and in series [18] was “Dde” in each case. The inhibition at 5 µM in series [3] was determined as 79.6%. For the same molecule, the inhibition in vivo at 100 mg/kg in [4] was found to be 37.6%; in series [14], 32.3%; in [15] it was 41.1%; in [21], 41.2%. For the same molecule, the viability at 24 h, 50 µM in series [5] turned out to be 90.1%. Besides, the Activity result in [6], in [13], in series [17] and in [20] was “Dde” in each case. In addition, in [7], the viability at 24 h, 10 µM was determined as 98.4%. For the same molecule, in series [8], the inhibition at 2.5 µM worked out at 53.4%. The viability at 24 h, 20 µM in [9] turned out to be 86.1%. Further, the viability at 24 h, 100 µM in [10] was determined as 11.1%. Besides, the viability at 24 h, 200 µM in [11] worked out at 9.2%. Moreover, the inhibition at 10 µM in series [19] came to 91.4%.

With `COC(=O)[C@@]12CCCC3([C@H](O)OC1)[C@H]2CC[C@H]1[C@@H](C)c2ccoc2C[C@@H]13`, the outcome in [1], in series [12] and in [16] was Active. In addition, in series [3], the inhibition at 5 µM amounted to 49.7%. In addition, the inhibition in vivo at 100 mg/kg in series [4] amounted to 23.8%; in series [14], 24%; in [15], 28.2%; in series [21], 33.3%. Moreover, in series [5], the viability at 24 h, 50 µM worked out at 29.4%. In addition, the viability at 24 h, 10 µM in series [7] was found to be 99%. In series [8], the inhibition at 2.5 µM stood at 24.9%. Besides, the viability at 24 h, 20 µM in [9] worked out at 84.6%. Further, the viability at 24 h, 100 µM in [10] is 7.5%. Also, in [11], the viability at 24 h, 200 µM stood at 7.2%. Also, the inhibition at 10 µM in series [19] was 70.5%.

Take `CN(C)C(=N)NC(=N)N` [METFORMIN]: the inhibition at 500 µM in series [24] was 51.5%.
